Target: T1, 2-Naphthoyl-CoA reductase (NCR) (uncultured Desulfobacterium sp., UniProt E1YD54)
T1 construct: gene N47_G38220; Strep-tag fusion, E. coli host, monomer; TIM barrel 19-359, linker 360-400 with [4Fe-4S], FAD domain 401-503 + 626-674, alpha/beta domain 504-625
T1 sequence (E1YD54 1-670): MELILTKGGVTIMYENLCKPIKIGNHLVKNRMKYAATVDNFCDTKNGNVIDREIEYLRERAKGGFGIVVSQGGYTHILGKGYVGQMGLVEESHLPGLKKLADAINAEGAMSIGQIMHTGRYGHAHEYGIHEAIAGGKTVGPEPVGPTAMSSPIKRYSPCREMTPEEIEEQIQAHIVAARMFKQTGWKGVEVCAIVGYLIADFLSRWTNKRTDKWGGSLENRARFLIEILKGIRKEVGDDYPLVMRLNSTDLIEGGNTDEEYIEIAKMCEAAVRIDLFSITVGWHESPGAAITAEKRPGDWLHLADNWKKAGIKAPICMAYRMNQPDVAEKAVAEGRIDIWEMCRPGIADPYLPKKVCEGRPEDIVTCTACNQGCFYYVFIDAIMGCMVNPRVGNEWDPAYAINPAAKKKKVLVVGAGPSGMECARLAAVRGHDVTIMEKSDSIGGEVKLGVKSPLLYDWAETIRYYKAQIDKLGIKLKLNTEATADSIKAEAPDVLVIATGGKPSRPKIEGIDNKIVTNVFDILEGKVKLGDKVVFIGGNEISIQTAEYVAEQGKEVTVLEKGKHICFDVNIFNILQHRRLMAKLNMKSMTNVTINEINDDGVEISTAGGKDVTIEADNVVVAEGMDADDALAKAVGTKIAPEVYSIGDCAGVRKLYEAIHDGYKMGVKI
Experiment: X-ray crystal structure, soaked, […] A
Assay type: binding
Conditions: crystals soaked with 0.5 mM NCoA, pH 6.5-7.0, 2 h, 4 C; active site, stacked on FMN; incompletely occupied

Structure (SMILES): CC(C)(COP(=O)(O)OP(=O)(O)OC[C@H]1O[C@@H](n2cnc3c(N)ncnc32)[C@H](O)[C@@H]1OP(=O)(O)O)[C@@H](O)C(=O)NCCC(=O)NCCSC(=O)c1ccc2ccccc2c1 [NCoA]
- X-ray crystal structure, soaked, 2.2 A: structure in complex with the substrate NCoA and the product DHNCoA were determined
